The subject of data set [1] is PARP. To be noted: cited from earlier work.
Data set [2] is classed as in vivo, human. To be noted: for ω CLR/F (L·h^−1): between-subject variability; for increase in veliparib exposure: covariate model.
Data set [3] has as its system CYP2D6. To be noted: in vitro study; cited from earlier work.
Data set [4] has as its system PARP.
In data set [5] the test system is PARP. To be noted: phase 0 study, single dose of veliparib; cited from earlier work.
For data set [6] the following is noted: fixed in model; fraction renally excreted; cited from earlier work.
The conditions of data set [7]: PBPK simulations, cited from earlier work.
The conditions of data set [8]: cited from earlier work.
The mark [9] stands for this setting: bootstrap median, 250 replicates.
Where [10] appears, read: analysis by Li et al, one-compartment model.
[11] abbreviates: population PK analysis by Salem et al, one-compartment model.
The mark [12] stands for this setting: previously reported, based on NCA.

Where two headings read alike, the source gives them in different places.

As a reminder, the CL/F is the apparent clearance, not corrected for the fraction that reaches the circulation. Broadly, the Vd/F is the apparent distribution volume after extravascular dosing.

As for `CC1(c2nc3c(C(N)=O)cccc3[nH]2)CCC(=O)N1` (centres unmarked) [M8], in data set [1], the “potency compared to veliparib (fold less potent)” value was “approximately 5 fold”. Also, the CLmet in data set [2] (setting [9]) was 22.7 L/h; in data set [2] (final model estimate) it was 22.8 L/h. For the same compound, the Qmet in data set [2] (setting [9]) and in data set [2] (final model estimate) was 29.0 L/h throughout. The Vc_met is listed as 23.5 L in data set [2] (setting [9]) and 23.6 L in data set [2] (final model estimate, metabolite central volume). In addition, the Vp_met in data set [2] (setting [9]) is 51.3 L; in data set [2] (final model estimate, metabolite peripheral volume), 51.4 L.
Take `C[C@]1(c2nc3c(C(N)=O)cccc3[nH]2)CCCN1` [veliparib, 2-[(R)-2-methylpyrrolidin-2-yl]-1H-benzimidazole-4-carboxamide]: the “share of overall veliparib metabolism accounted for by CYP2D6” value in data set [3] is reported as ~ 72%. In addition, the “Inhibition of PAR compared with pre-dose baseline” value in data set [4] (50/50 mg dose level b.i.d., PBMC) is given as ~ 50%. For the same compound, the “Inhibition of PARP compared with pre-dose baseline” value in data set [4] (500/500 mg dose level b.i.d., PBMC) is given as ~ 70%. Moreover, the “IC50 for PAR reduction (Emax model, veliparib plasma concentration as driver)” value in data set [4] (PBMC, estimated with low precision) is 0.03 µg/mL. The “inhibition of PAR levels in PBMCs” value in data set [4] (dose levels ranging from 50 to 500 mg) is listed as “At least 50%”. In addition, the “inhibition of PAR levels in PBMC” value in data set [5] is reported as “Significant inhibition”. For the same compound, the frenal in data set [6] is 0.7 (fix). Further, the “higher exposure versus extensive metabolizers” value in data set [7] (CYP2D6 poor metabolizers (PM)) was ~ 20%. Moreover, the “lower exposure versus extensive metabolizers” value in data set [7] (CYP2D6 ultra-extensive metabolizers (UM)) is on record as ~ 20%. Besides, the “expected "true" fraction converted to M8” value in data set [2] (30% non-renal elimination * 72% CYP2D6 share) is given as 22%. The “accumulation on chronic dosing” value in data set [2] (NCA approach, within dose range tested (50 to 500 mg b.i.d.)) is “Negligible accumulation”. The “ω CLR/F (L·h^−1)” value in data set [2] (bootstrap median) and in data set [2] (final model estimate) was 34.7% each time. The apparent clearance (CL/F) in data set [2] (setting [9]) was 17.3 L/h; in data set [8] (setting [10]), 13.3 L/h; in data set [8] (setting [11]) it was 20.9 L/h; in data set [8] (setting [12]), 18 L/h. For the same compound, the Ka is 2.02 h⁻¹ in data set [2] (setting [9]) and 2.02 h⁻¹ in data set [2] (final population PK model estimate, oral veliparib). The “LBM effect on Vc/F, power_LBM” value is recorded as 1.21 in data set [2] (setting [9]) and 1.21 in data set [2] (final model estimate, covariate exponent). Further, the Q/F in data set [2] (setting [9]) and in data set [2] (final model estimate) was 17.9 L/h in each case. Moreover, the Vc/F in data set [2] (setting [9]) is 99.1 L. In data set [2] (setting [9]), this compound showed a Vp/F of 47.5 L. The tlag in data set [2] (setting [9]) is 0.270 h; in data set [2] (final model estimate), 0.272 h. Besides, the “increase in veliparib exposure” value in data set [2] (mild renal function impairment (~25% decrease in CLCR)) is ~ 10%; in data set [2] (moderate renal function impairment (~50% decrease in CLCR)) it was ~ 20%. Further, the dose proportionality result in data set [2] (dose level from 50 to 500 mg) is recorded as “supported”. Further, the “Vc/F (central volume of distribution)” value in data set [2] (final model estimate, typical subject LBM 48 kg) is listed as 99.2 L. Further, the “CL/F (total clearance, CLR/F + CLNR/F)” value in data set [2] (final model estimate, typical subject LBM 48 kg, CLCR 95 mL/min) was 17.3 L/h. Moreover, the fm in data set [2] (fixed in model, fraction metabolized to M8 assumed as 1−frenal) was 0.3 (fix). For the same compound, the Vd/F in data set [2] (human, plasma, oral, Vd/F (=Vc/F+ Vp/F), final model, standardized to 48 kg LBM and 95 mL/min CLCR) was 147 L; in data set [8] (setting [10]) it was 126 L; in data set [8] (setting [11]) it was 173 L; in data set [8] (setting [12]) it was 145 L. Further, the “contribution of CYP2D6 metabolism to veliparib total clearance” value in data set [2] (worked out from non-renal fraction and CYP2D6 share) is recorded as ~ 22%.

Source of the values: paper PMC5503785 (Journal of clinical pharmacology, 2017).
